Assays:
human M4 mAChR = biological target: T1, human M4 mAChR (Homo sapiens, UniProt P08173); test: Whole-cell functional agonist activity, phospho-ERK (pERK), CHOK1-based human M4 mAChR stable cell line; details: for EC50: agonist, CHOK1 human M4 cells; for M4 Top (%): top of curve, % of min (DMSO) and max (10 mM Acetylcholine) responses
T1 construct: expressed in transfected cells
T1 sequence (P08173 1-479): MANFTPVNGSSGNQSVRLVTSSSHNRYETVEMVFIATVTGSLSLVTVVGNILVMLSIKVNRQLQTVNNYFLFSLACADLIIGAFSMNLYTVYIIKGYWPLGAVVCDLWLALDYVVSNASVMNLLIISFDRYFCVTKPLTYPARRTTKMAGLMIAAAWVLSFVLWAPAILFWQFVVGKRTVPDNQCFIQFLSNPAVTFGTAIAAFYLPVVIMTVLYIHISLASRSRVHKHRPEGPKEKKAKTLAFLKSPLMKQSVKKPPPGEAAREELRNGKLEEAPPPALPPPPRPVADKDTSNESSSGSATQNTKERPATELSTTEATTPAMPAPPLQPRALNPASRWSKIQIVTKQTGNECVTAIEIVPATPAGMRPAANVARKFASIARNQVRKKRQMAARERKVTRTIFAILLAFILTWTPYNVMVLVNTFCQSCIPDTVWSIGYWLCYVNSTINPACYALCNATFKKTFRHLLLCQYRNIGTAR
Experimental: (§1) Whole-cell functional agonist activity in cells expressing recombinant human muscarinic receptor subtypes.
(§2) ThermoFisher's FLIPR™ (Fluorescence Imaging Plate Reader) was used to quantify Ca^2+ release, a functional effect associated with Gaq-coupled M1 and M5 mAChRs. CisBio's phospho-ERK (pERK) Thr202/Tyr204 was used to evaluate Gai/o-coupled M2 and M4 mAChRs responses.
(§3) Percentage activity was calculated using the following formula: % Activity=100%×(mean RFU of test sample mean RFU of vehicle control)/(mean MAX RFU control ligand mean RFU of vehicle control) where RFU is relative fluorescence unit. The M2 and the M4 cells were thawed out one day before the assay and plated at 2,000 and 1,000 cells per well, respectively, in […] of DMEM/F12+10% FBS in ProxiPlate 384-well white-walled, white-bottom tissue culture-treated plates and incubated at 37° C. and 5% CO2 overnight. Before the assay, cells were serum-starved at 37° C. in 5% CO2 for 4 hours by replacing culture media with […] of F12 media with 8 mM HEPES. The pERK assay was run according to assay kit instructions with minor volume modifications outlined below.
(§4) Compound addition was carried out by adding 3× compound solution in […] of media with 0.3% DMSO (made from a 10 mM compound stock solution in 100% DMSO) for 5 minutes before the reaction was terminated by adding […] lysis and blocking solution. Cells were left in the lysis solution for 30 minutes before […] of antibody (Eu and d2) solution was added for an additional 2-hour incubation while protected from light. The plates were then read on laser Pherastar using the TR-FRET protocol.

human M3 mAChR = biological target: T2, human M3 mAChR (Homo sapiens, UniProt P20309); test: Whole-cell functional agonist activity, FLIPR Ca2+ release, U2OS-based human M3 mAChR stable cell line; details: for EC50: agonist, FLIPR Ca2+ release, U2OS human M3 cells; for Emax: top of curve, % activity vs MAX control ligand, FLIPR Ca2+
T2 construct: expressed in transfected cells
T2 sequence (P20309 whole entry): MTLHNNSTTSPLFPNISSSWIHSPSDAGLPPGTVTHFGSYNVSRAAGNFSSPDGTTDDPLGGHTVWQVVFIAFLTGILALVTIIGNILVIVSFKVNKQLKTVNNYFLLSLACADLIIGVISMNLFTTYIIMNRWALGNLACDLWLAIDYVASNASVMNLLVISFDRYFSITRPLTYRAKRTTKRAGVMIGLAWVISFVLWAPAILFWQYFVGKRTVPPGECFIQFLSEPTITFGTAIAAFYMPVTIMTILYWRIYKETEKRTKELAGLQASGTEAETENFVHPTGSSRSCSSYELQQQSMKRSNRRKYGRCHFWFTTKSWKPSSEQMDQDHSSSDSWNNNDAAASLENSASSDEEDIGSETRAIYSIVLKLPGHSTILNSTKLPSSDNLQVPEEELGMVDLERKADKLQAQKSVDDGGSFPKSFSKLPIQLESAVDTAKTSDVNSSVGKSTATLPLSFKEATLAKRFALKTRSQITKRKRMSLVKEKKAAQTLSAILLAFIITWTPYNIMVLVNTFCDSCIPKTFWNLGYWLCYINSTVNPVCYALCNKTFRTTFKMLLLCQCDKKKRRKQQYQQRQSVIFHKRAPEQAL
From the text: as §1, §2
One day before the assay, M1, M3, and M5 cells were thawed out and plated at 10,000 cells/well into black-walled, clear-bottom, Poly-D-lysine coated 384-well microplates and incubated at 37° C. and 5% CO2 in MEME+10% FBS+1× penicillin/streptomycin/glutamine, for the M1 and M3 cell lines and F-12+10% FBS+1× penicillin/streptomycin/glutamine for the M5 cell line. On the day of the test, the media was aspirated and replaced with […] fluo-4 dye loading buffer (1× dye, 1× additive A and 2.5 mM fresh probenecid in HBSS and 20 mM HEPES) and incubated at 37° C. and 5% CO2 for 45 minutes. After the incubation, cells were removed from the incubator, […] of HBSS and 20 mM HEPES was added for a total volume of […], and the cells were allowed to equilibrate at room temperature for 15 minutes in the dark before compounds were applied, by adding 4× compound solution in […] of HBSS, 0.4% DMSO and 20 mM HEPES buffer (made from a 10 mM compound stock solution in 100% DMSO), and responses were recorded for 2 minutes in FLIPR Tetra after compound administration. The M1 and M5 responses were analyzed using the CBIS data analysis suite (ChemInnovation, CA).
as §3

human M2 mAChR = biological target: T3, human M2 mAChR (Homo sapiens, UniProt P08172); test: Whole-cell functional agonist activity, phospho-ERK (pERK), CHOK1-based human M2 mAChR stable cell line; details: for EC50: agonist, CHOK1 human M2 cells; for M2 Top (%): top of curve, % of min (DMSO) and max (10 mM Acetylcholine) responses
T3 construct: expressed in transfected cells
T3 sequence (P08172 1-466): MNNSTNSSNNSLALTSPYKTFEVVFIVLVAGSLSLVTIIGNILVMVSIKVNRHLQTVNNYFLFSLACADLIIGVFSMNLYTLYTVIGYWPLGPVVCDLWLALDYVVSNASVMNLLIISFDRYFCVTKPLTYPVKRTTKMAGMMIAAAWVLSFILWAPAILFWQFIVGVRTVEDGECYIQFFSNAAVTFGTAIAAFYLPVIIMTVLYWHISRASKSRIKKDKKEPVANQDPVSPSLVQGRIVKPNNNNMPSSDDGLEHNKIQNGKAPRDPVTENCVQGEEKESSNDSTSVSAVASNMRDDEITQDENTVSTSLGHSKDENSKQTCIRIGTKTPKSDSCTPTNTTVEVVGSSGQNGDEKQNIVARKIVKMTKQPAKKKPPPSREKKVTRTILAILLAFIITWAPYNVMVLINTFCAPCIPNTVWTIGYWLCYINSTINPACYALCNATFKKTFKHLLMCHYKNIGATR
Experimental: as §1, §2, §3, §4

[1] = Human liver microsome stability; format: in vitro ADME; details: human liver microsomes; for microsomal CLint at 100 nM: apparent intrinsic clearance, no unit in table (μL/min/pmol, μL/min/mg or μL/min/Mcell); for Parent at 60 min (%) / half-life at 100 nM: 100 nM, 37° C., tartrate salt
Experimental: Human Liver Microsome Stability
Test compounds were dissolved in DMSO to prepare 10 mM stock solutions, diluted to a final test concentration of 100 nM, and incubated at 37° C. with human liver microsomes. Metabolic stability, expressed as a percent of the parent compound remaining, was assessed at 0, 15, 30, 45, and 60 minutes and calculated by comparing the compound's peak area at the time point relative to that at time-0. The half-life (T1/2) was estimated from the slope of the initial linear range of the logarithmic curve of compound remaining (%) vs. time, assuming first-order kinetics. The apparent intrinsic clearance (CLint, in μL/min/pmol, μL/min/mg or μL/min/Mcell) was calculated according to the following formula: CLint=0.693 T1/2*(mg protein/μL or million cells/μL or pmol CYP isoyme/μL).

Compound	EC50 (human M4 mAChR) [nM]	M4 Top (%) (human M4 mAChR)	EC50 (human M3 mAChR) [nM]	Emax (human M3 mAChR) [%]	EC50 (human M2 mAChR) [nM]	M2 Top (%) (human M2 mAChR)	microsomal CLint at 100 nM [1] [µL/min/mg]	Parent at 60 min (%) [1] [%]	half-life at 100 nM [1] [min]
CN1CCC=C(c2nsnc2OCCCCCC(F)(F)F)C1 [Example 1, 3-(1-Methyl-1,2,5,6-tetrahydropyridin-3-yl)-4-((6,6,6-trifluorohexyl)oxy)-1,2,5-thiadiazole]	15.7	82	> 10000	16	> 34	1	447	7	16
CCC(F)(F)CCCOc1nsnc1C1=CCCN(C)C1 [Example 9, 3-((4,4-Difluorohexyl)oxy)-4-(1-methyl-1,2,5,6-tetrahydropyridin-3-yl)-1,2,5-thiadiazole]	> 34	5	> 10000	2	> 34	1	576	3	12
CCCCC(F)(F)COc1nsnc1C1=CCCN(C)C1 [Example 11, 3-((2,2-Difluorohexyl)oxy)-4-(1-methyl-1,2,5,6-tetrahydropyridin-3-yl)-1,2,5-thiadiazole]	374	62	> 10000	3	> 34	0	2000	7	3

Stronger by EC50 (human M4 mAChR), values ahead:

EC50 (human M4 mAChR) [nM]	M4 Top (%) (human M4 mAChR)	EC50 (human M3 mAChR) [nM]	Emax (human M3 mAChR) [%]	EC50 (human M2 mAChR) [nM]	M2 Top (%) (human M2 mAChR)	microsomal CLint at 100 nM [1] [µL/min/mg]	Parent at 60 min (%) [1] [%]	half-life at 100 nM [1] [min]	Compound
11	108	> 10000	11	> 34	2	413	8	17	CN1CCC=C(c2nsnc2OCCCCCC(F)F)C1 [Example 6, 3-((6,6-difluorohexyl)oxy)-4-(1-methyl-1,2,5,6-tetrahydropyridin-3-yl)-1,2,5-thiadiazole]
8.3	112	> 10000	7	> 34	3	553	3	13	CN1CCC=C(c2nsnc2OCCCCCCF)C1 [Example 7, 3-((6-Fluorohexyl)oxy)-4-(1-methyl-1,2,5,6-tetrahydropyridin-3-yl)-1,2,5-thiadiazole]
12.6	48	> 10000	7	> 34	0	711	2	10	CN1CCC=C(c2nsnc2OCCCCC(C)(F)F)C1 [Example 8, 3-((5,5-Difluorohexyl)oxy)-4-(1-methyl-1,2,5,6-tetrahydropyridin-3-yl)-1,2,5-thiadiazole]

— patent US11534434B2 (Karuna Therapeutics, Inc., priority 2019, dated 2022)
